The source of these data is patent publication US7304064B2, “1-[(indol-3-yl)carbonyl]piperazine derivatives” (N.V. Organon, priority 2002, dated 2007).

One experiment deals with T1, human CB1 receptor (Homo sapiens, UniProt P21554).
T1 construct: expressed in transfected cells; host or cells: CHO (Chinese Hamster Ovary) cells
Kind of experiment: In-vitro determination of efficacy and potency at the human CB1 receptor expressed in CHO cells (luciferase reporter). In kind it is cell-based.

A further experiment concerns Mice. Briefly: Tail flick latency in mice. In kind it is in vivo. Particulars: Mus musculus, iv, administered intravenously, ED50 calculated at Tmax, read-out: ED50 (increase of tail flick latency). Here is the method:
Mice were trained to sit still in a tail flick apparatus (Ugo Basile, Italy) whilst tail flick latency was measured. The tail was exposed to a focused beam of radiant heat at a point approximately 2.5 cm from the tip. Tail flick latency was defined as the interval between the appliance of the thermal stimulus and withdrawal of the tail. A 12 second cut-off was employed to prevent tissue damage. Four groups of eight mice were treated with vehicle or one of three doses of the test compound, administered intravenously (vehicle: saline 9 g/l; injection volume 10 ml/kg). Tail flick latency was measured before administration of the test compound and at regular intervals (typically 20, 40 and 60 minutes) after compound administration. The ED50 was calculated at Tmax.

[1] abbreviates: CHO cells expressing the human CB1 receptor and a luciferase reporter gene, 5 hours incubation, read-out: pEC50 (converted).

Where two headings read alike, the source gives them in different places.

The term ED50 denotes the dose that gives a 50% effect, or the effect in half of the subjects.

T1 sequence (P21554 whole entry): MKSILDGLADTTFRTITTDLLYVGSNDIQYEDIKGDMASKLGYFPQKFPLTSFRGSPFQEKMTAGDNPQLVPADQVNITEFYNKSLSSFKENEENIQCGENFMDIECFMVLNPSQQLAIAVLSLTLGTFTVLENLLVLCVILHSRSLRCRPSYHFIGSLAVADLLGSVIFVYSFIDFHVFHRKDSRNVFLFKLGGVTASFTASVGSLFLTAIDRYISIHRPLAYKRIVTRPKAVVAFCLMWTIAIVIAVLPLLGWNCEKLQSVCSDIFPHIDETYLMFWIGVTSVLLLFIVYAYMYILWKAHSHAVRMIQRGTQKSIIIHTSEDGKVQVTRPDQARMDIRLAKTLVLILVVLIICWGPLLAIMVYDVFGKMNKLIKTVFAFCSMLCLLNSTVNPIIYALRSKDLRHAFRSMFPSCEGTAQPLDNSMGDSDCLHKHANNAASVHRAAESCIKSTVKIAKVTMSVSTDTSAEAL

As for `CCN1CCN(C(=O)c2cn(CCN3CCOCC3)c3c(OC)cccc23)CC1` [Ref. 2, 1-Ethyl-4-{[7-methoxy-1-[2-(4-morpholin-yl)ethyl]-1H-indol-3-y]carbonyl}-piperazine, reference compound], the EC50 at human CB1 receptor is above 10000 nM.
As for `COc1cccc2c(C(=O)N3CC(C)N(C)C(C)C3)cn(CC3CCCCC3)c12` (centres unmarked) [Example 15F, 1-{[1-(cyclohexylmethyl)-7-methoxy-1H-indol-3-yl]carbonyl}-3,4,5-trimethylpiperazine], the EC50 at human CB1 receptor was 31.6 nM. Also, the ED50 in the experiment on Mice was below 5 µmol/kg.
Taken in the same sequence, the figures for `COc1cccc2c(C(=O)N3CCN(C)[C@@H](C)C3)cn(CC3CCCCC3)c12` [Example 15O, (S)-1-{[1-(cyclohexylmethyl)-7-methoxy-1H-indol-3-yl]carbonyl}-3,4-dimethylpiperazine] were 25.1 nM and below 5 µmol/kg.
Regarding `COc1cccc2c(C(=O)N3CCN4CCCC[C@H]4C3)cn(CC3CCCCC3)c12` [Example 17A, (S)-2-{[1-(Cyclohexylmethyl)-7-methoxy-1H-indol-3-yl]carbonyl}-octahydro-2H-Pyrido[1,2-a]pyrazine], the EC50 at human CB1 receptor (setting [1]) was 12.6 nM. Moreover, the ED50 with Mice is below 5 µmol/kg.
On to `CN1CCN(C(=O)c2cn(CC3CCCCC3)c3cc(F)ccc23)CC1` [Example 5T, 1-{[1-(Cyclohexylmethyl)-6-fluoro-1H-indol-3-yl]carbonyl}-4-methylpiperazine], for which, on human CB1 receptor, the EC50 was 251 nM.
The same measure, in the same setting: the same measure for `CCN1CCN(C(=O)c2cn(Cc3ccccc3)c3c(OC)cccc23)CC1` [Ref. 3., 1-{[1-Benzyl-7-methoxy-1H-indol-3-yl]carbonyl}-4-ethylpiperazine, reference compound]: above 10000 nM.
Consider `CCN1CCN(C(=O)c2cn(CC3CCCCC3)c3c(F)cccc23)CC1` [Example 5B, 1-{[1-(Cyclohexylmethyl)-7-fluoro-1H-indol-3-yl]carbonyl}-4-ethylpiperazine], for which the EC50 at human CB1 receptor was 100 nM.
On the same count and under the same terms, the result for `CCN1CCN(C(=O)c2cn(C(C)C3CCCCC3)c3ccccc23)CC1` (single isomer, unassigned; (+)) [(+)-5I, (+)-1-{[1-(1-Cyclohexylethyl)-1H-indol-3-yl]carbonyl)-4-ethylpiperazine] reads 79.4 nM.
On to `CCN1C(C)CN(C(=O)c2cn(CC3CCCCC3)c3c(OC)cccc23)CC1C` (centres unmarked) [Example 14, 1-{[1-(Cyclohexylmethyl)-7-methoxy-1H-indol-3-yl]carbonyl}-3,5-dimethyl-4-ethylpiperazine], for which the EC50 at human CB1 receptor was 10 nM. Besides, the ED50 with Mice is below 5 µmol/kg.
Consider `COc1cccc2c(C(=O)N3CCN(CCO)CC3)cn(CC3CCCCC3)c12` [Example 3C, 1-{[1-(Cyclohexylmethyl)-7-methoxy-1H-indol-3-yl]carbonyl}-4-(2-hydroxyethyl)piperazine], for which the EC50 at human CB1 receptor (setting [1]) was 251 nM.
As to `COc1cccc2c(C(=O)N3CCN4CCCC[C@H]4C3)cn(CC3CCCC3)c12` [Example 17D, (S)-2-{[1-(Cyclopentylmethyl)-7-methoxy-1H-indol-3-yl]carbonyl}-octahydro-2H-pyrido[1,2-a]pyrazine], the EC50 on human CB1 receptor (setting [1]) was 31.6 nM. Besides, the ED50 with Mice was below 5 µmol/kg.
The matching figures for `COc1cccc2c(C(=O)N3CCN4CCC[C@H]4C3)cn(CC3CCCCC3)c12` [Example 17C, (S)-2-{[1-(Cyclohexylmethyl)-7-methoxy-1H-indol-3-yl]carbonyl}-octahydro-2H-Pyrrolo[1,2-a]pyrazine]: 25.1 nM and below 5 µmol/kg.
Regarding `CCN1CCN(C(=O)c2cn(CC3CC=CCC3)c3c(OC)cccc23)CC1` (centres unmarked) [Example 5Q, 1-{[1-(Cyclohex-3-enylmethyl)-7-methoxy-1H-indol-3-yl]carbonyl}-4-ethylpiperazine], on human CB1 receptor, the EC50 was 200 nM.
Still for that read-out and setting: the result for `CCN1CCN(C(=O)c2cn(CC3CCCC3)c3c(OC)cccc23)CC1` [Example 2, 1-{[1-(Cyclopentylmethyl)-7-methoxy-1H-indol-3-yl]carbonyl}-4-ethylpiperazine] reads 316 nM.
